Results reported in PubChem BioAssay AID248 (DTP/NCI, 2004).
Values joined by “and” are separate entries in the source; they are usually repeats but may differ in a detail not shown here. Equal entries are not always repeated. Toxic doses and inconclusive results are not listed.

Test system: L1210 leukemia ip in BDF1 mice, survival T/C
Assay: NCI In Vivo Anticancer Drug Screen. Data for tumor model L1210 Leukemia (intraperitoneal) in B6D2F1 (BDF1) mice
Details: endpoint: mean survival time, higher = longer survival
In short: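 Tumor was transplanted into mice, which were then dosed with test compound or vehicle alone. Survival was recorded for each group, and the treated figure was expressed relative to the control figure.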

[1] = dose: 100.0 mg/kg/injection, schedule: Q01DX009 (ip), vehicle: saline with Tween-80
[2] = dose: 100.0 mg/kg/injection, schedule: Q04DX003 (ip), vehicle: saline with Tween-80
[3] = dose: 200.0 mg/kg/injection, schedule: Q01DX009 (ip), vehicle: saline with Tween-80
[4] = dose: 200.0 mg/kg/injection, schedule: Q04DX003 (ip), vehicle: saline with Tween-80
[5] = dose: 400.0 mg/kg/injection, schedule: Q04DX003 (ip), vehicle: saline with Tween-80
[6] = dose: 100.0 mg/kg/injection, schedule: Q04DX003 (ip), vehicle: saline
[7] = dose: 200.0 mg/kg/injection, schedule: Q04DX003 (ip), vehicle: saline
[8] = dose: 400.0 mg/kg/injection, schedule: Q04DX003 (ip), vehicle: saline
[9] = dose: 200.0 mg/kg/injection, schedule: Q04DX002 (ip), vehicle: saline with Tween-80
[10] = dose: 400.0 mg/kg/injection, schedule: Q04DX002 (ip), vehicle: saline with Tween-80
[11] = dose: 100.0 mg/kg/injection, schedule: Q01DX001 (ip), vehicle: saline
[12] = dose: 200.0 mg/kg/injection, schedule: Q01DX001 (ip), vehicle: saline
[13] = dose: 100.0 mg/kg/injection, schedule: Q01DX009 (ip), vehicle: Klucel (hydroxypropylcellulose) (HPC)
[14] = dose: 200.0 mg/kg/injection, schedule: Q01DX009 (ip), vehicle: Klucel (hydroxypropylcellulose) (HPC)
[15] = dose: 100.0 mg/kg/injection, schedule: Q04DX003 (ip), vehicle: Klucel (hydroxypropylcellulose) (HPC)
[16] = dose: 200.0 mg/kg/injection, schedule: Q04DX003 (ip), vehicle: Klucel (hydroxypropylcellulose) (HPC)
[17] = dose: 400.0 mg/kg/injection, schedule: Q04DX003 (ip), vehicle: Klucel (hydroxypropylcellulose) (HPC)
[18] = dose: 50.0 mg/kg/injection, schedule: Q01DX009 (ip), vehicle: saline
[19] = dose: 100.0 mg/kg/injection, schedule: Q01DX009 (ip), vehicle: saline
[20] = dose: 200.0 mg/kg/injection, schedule: Q01DX009 (ip), vehicle: saline

For `CCCCCCCCCCCCSC1=CC(=O)C=CC1=O`, the T/C (dose: 5.0 mg/kg/injection, schedule: Q01DX001 (ip), vehicle: saline) was 101 % of control, the T/C (dose: 10.0 mg/kg/injection, schedule: Q01DX001 (ip), vehicle: saline) was 108 % of control and the T/C (dose: 20.0 mg/kg/injection, schedule: Q01DX001 (ip), vehicle: saline) was 97 % of control. For the same compound, the T/C (dose: 40.0 mg/kg/injection, schedule: Q01DX001 (ip), vehicle: saline) was 112 % of control and the T/C (dose: 80.0 mg/kg/injection, schedule: Q01DX001 (ip), vehicle: saline) was 112 % of control.
In the case of `O=C(O)CNC(=O)c1ccc([N+](=O)[O-])cc1`, the T/C [1] is reported as 92 % of control, the T/C [2] is reported as 103 % of control and the T/C [3] is reported as 92 % of control. The T/C [4] was 98 % of control, the T/C (dose: 400.0 mg/kg/injection, schedule: Q01DX009 (ip), vehicle: saline with Tween-80) was 92 % of control and the T/C [5] was 98 % of control.
`O=C1OC(c2ccccc2)=NC1(c1ccccc1)C1(c2ccccc2)N=C(c2ccccc2)OC1=O` (configuration not stated) was tested, and the T/C [2] was 88 % of control, the T/C [4] was 93 % of control and the T/C [5] was 86 % of control.
For `CC12CCC(O)C(C)(C)C1=C(O)C(=O)C1=C2C(=O)CC2(C)C(=O)CCC12C` (configuration not stated), the T/C [6] was 93 % of control, the T/C [7] was 93 % of control and the T/C [8] was 98 % of control.
`CC/C=C(\C)CC(C)O` (configuration not stated) was tested, and the T/C [9] was 90 % of control and the T/C [10] was 90 % of control.
For `COCCN=Cc1ccc(N(C)C)cc1`, the T/C (dose: 100.0 mg/kg/injection, schedule: Q04DX002 (ip), vehicle: saline with Tween-80) was 103 % of control, the T/C [9] was 100 % of control and the T/C [10] was 100 % of control.
With `CC(=O)OC1=C(CC(C)(C)C)C(=O)c2ccccc2C1=O` the T/C (dose: 50.0 mg/kg/injection, schedule: Q01DX001 (ip), vehicle: carboxymethylcellulose (CMC)) was 103 % of control, the T/C (dose: 100.0 mg/kg/injection, schedule: Q01DX001 (ip), vehicle: carboxymethylcellulose (CMC)) was 103 % of control and the T/C (dose: 200.0 mg/kg/injection, schedule: Q01DX001 (ip), vehicle: carboxymethylcellulose (CMC)) was 100 % of control. For the same compound, the T/C (dose: 400.0 mg/kg/injection, schedule: Q01DX001 (ip), vehicle: carboxymethylcellulose (CMC)) was 105 % of control.
For `CCOC(=O)Cc1cc(O)ccc1O`, the T/C (dose: 100.0 mg/kg/injection, schedule: Q01DX001 (ip), vehicle: saline with Tween-80) was 109 % of control, the T/C (dose: 200.0 mg/kg/injection, schedule: Q01DX001 (ip), vehicle: saline with Tween-80) was 89 % of control and the T/C (dose: 400.0 mg/kg/injection, schedule: Q01DX001 (ip), vehicle: saline with Tween-80) was 91 % of control.
In the case of `Oc1ccc(Cl)cc1/C=N/N1CCN(/N=C/c2cc(Cl)ccc2O)CC1`, the T/C [11] is reported as 90 % of control, the T/C [12] is reported as 90 % of control and the T/C (dose: 400.0 mg/kg/injection, schedule: Q01DX001 (ip), vehicle: saline) is reported as 90 % of control.
In the case of `COC(=O)c1ccc([N+](=O)[O-])o1`, the T/C (dose: 50.0 mg/kg/injection, schedule: Q04DX002 (ip), vehicle: Klucel (hydroxypropylcellulose) (HPC)) is reported as 104 % of control, the T/C [13] is reported as 93 % of control and the T/C (dose: 100.0 mg/kg/injection, schedule: Q04DX002 (ip), vehicle: Klucel (hydroxypropylcellulose) (HPC)) is reported as 90 % of control. The T/C [14] was 111 % of control, the T/C (dose: 200.0 mg/kg/injection, schedule: Q04DX002 (ip), vehicle: Klucel (hydroxypropylcellulose) (HPC)) was 101 % of control and the T/C (dose: 400.0 mg/kg/injection, schedule: Q04DX002 (ip), vehicle: Klucel (hydroxypropylcellulose) (HPC)) was 87 % of control.
With `c1ccc(CN(CCCOc2ccccc2)Cc2ccccc2)cc1` the T/C [2] was 103 % of control, the T/C [4] was 103 % of control and the T/C [5] was 97 % of control.
For `CC(=O)C1=C(c2ccccc2)C(=O)C(C(C)=O)=C(c2ccccc2)C1=O`, the T/C [15] was 100 % of control, the T/C [16] was 100 % of control and the T/C [17] was 96 % of control.
In the case of `O=CNc1ccc2c3c(cccc13)CC2`, the T/C (dose: 100.0 mg/kg/injection, schedule: Q01DX001 (ip), vehicle: Klucel (hydroxypropylcellulose) (HPC)) is reported as 101 % of control, the T/C (dose: 200.0 mg/kg/injection, schedule: Q01DX001 (ip), vehicle: Klucel (hydroxypropylcellulose) (HPC)) is reported as 93 % of control and the T/C (dose: 400.0 mg/kg/injection, schedule: Q01DX001 (ip), vehicle: Klucel (hydroxypropylcellulose) (HPC)) is reported as 108 % of control.
For `CC(O)(c1ccc(Br)cc1)C(c1ccccc1)c1ccccn1` (configuration not stated), the T/C [18] was 103 % of control, the T/C [19] was 94 % of control and the T/C [6] was 110 % of control. For the same compound, the T/C [20] was 94 % of control, the T/C [7] was 103 % of control and the T/C (dose: 400.0 mg/kg/injection, schedule: Q01DX009 (ip), vehicle: saline) was 101 % of control. The T/C [8] was 110 % of control.
With `CCn1cc([N+](=O)[O-])ccc1=O` the T/C [13] was 104 % of control, the T/C [15] was 98 % of control and the T/C [14] was 101 % of control. The T/C [16] was 96 % of control, the T/C (dose: 400.0 mg/kg/injection, schedule: Q01DX009 (ip), vehicle: Klucel (hydroxypropylcellulose) (HPC)) was 98 % of control and the T/C [17] was 107 % of control.
For `O=NN(CCCl)C(=O)NC1CCC(NC(=O)N(CCCl)N=O)CC1` (configuration not stated), the T/C (dose: 44.0 mg/kg/injection, schedule: Q01DX001 (ip), vehicle: other) was 162 % of control and 286 % of control, the T/C (dose: 63.0 mg/kg/injection, schedule: Q01DX001 (ip), vehicle: carboxymethylcellulose (CMC)) was 247 % of control and the T/C (dose: 67.0 mg/kg/injection, schedule: Q01DX001 (ip), vehicle: other) was 168 % of control and 328 % of control. For the same compound, the T/C (dose: 82.0 mg/kg/injection, schedule: Q01DX001 (ip), vehicle: carboxymethylcellulose (CMC)) was 267 % of control, the T/C (dose: 100.0 mg/kg/injection, schedule: Q01DX001 (ip), vehicle: other) was 305 % of control and 314 % of control and the T/C (dose: 125.0 mg/kg/injection, schedule: Q01DX001 (ip), vehicle: carboxymethylcellulose (CMC)) was 310 % of control. For the same compound, the T/C (dose: 127.0 mg/kg/injection, schedule: Q01DX001 (ip), vehicle: carboxymethylcellulose (CMC)) was 342 % of control, the T/C (dose: 150.0 mg/kg/injection, schedule: Q01DX001 (ip), vehicle: other) was 268 % of control and 180 % of control and the T/C (dose: 187.0 mg/kg/injection, schedule: Q01DX001 (ip), vehicle: carboxymethylcellulose (CMC)) was 290 % of control. For the same compound, the T/C (dose: 225.0 mg/kg/injection, schedule: Q01DX001 (ip), vehicle: other) was 285 % of control and 178 % of control, the T/C (dose: 255.0 mg/kg/injection, schedule: Q01DX001 (ip), vehicle: carboxymethylcellulose (CMC)) was 344 % of control and the T/C (dose: 280.0 mg/kg/injection, schedule: Q01DX001 (ip), vehicle: carboxymethylcellulose (CMC)) was 275 % of control. For the same compound, the T/C (dose: 337.0 mg/kg/injection, schedule: Q01DX001 (ip), vehicle: other) was 306 % of control and the T/C (dose: 510.0 mg/kg/injection, schedule: Q01DX001 (ip), vehicle: carboxymethylcellulose (CMC)) was 181 % of control.
With `Cc1csc(C)[n+]1[O-]` the T/C [6] was 102 % of control, the T/C [7] was 101 % of control and the T/C [8] was 98 % of control.
With `CC(=O)NCCCC1CCCCC1CN` (configuration not stated) the T/C [6] was 104 % of control, the T/C [7] was 114 % of control and the T/C [8] was 114 % of control.
For `COC1CC(OCc2ccc(Br)cc2)C(COC(c2ccccc2)(c2ccccc2)c2ccccc2)O1` (configuration not stated), the T/C [15] was 92 % of control, the T/C [16] was 94 % of control and the T/C [17] was 100 % of control.
`CC1=CC(=O)C(C)(C(Cl)Cl)C=C1` (configuration not stated) was tested, and the T/C [2] was 95 % of control and the T/C [4] was 97 % of control.
With `Nc1ccc(-c2ccc(Br)cc2)cc1` the T/C (dose: 75.0 mg/kg/injection, schedule: Q01DX001 (ip), vehicle: carboxymethylcellulose (CMC)) was 101 % of control and the T/C (dose: 150.0 mg/kg/injection, schedule: Q01DX001 (ip), vehicle: carboxymethylcellulose (CMC)) was 100 % of control.
In the case of `CC(=O)OI(OC(C)=O)c1ccccc1`, the T/C [13] is reported as 98 % of control and the T/C [14] is reported as 102 % of control.
`OC1CCCN(Cc2ccccc2)C1` (configuration not stated) was tested, and the T/C [11] was 107 % of control and the T/C [12] was 96 % of control.
With `Cc1cccc(Cl)[n+]1[O-]` the T/C [6] was 97 % of control, the T/C [7] was 97 % of control and the T/C [8] was 86 % of control.
With `NC(=S=O)c1ccccc1` the T/C (dose: 50.0 mg/kg/injection, schedule: Q01DX009 (ip), vehicle: saline with Tween-80) was 93 % of control, the T/C [18] was 101 % of control and the T/C [1] was 97 % of control. For the same compound, the T/C [19] was 96 % of control, the T/C [3] was 93 % of control and the T/C [20] was 104 % of control.
`O=C(O)CS(=O)(=O)Cc1ccccc1` was tested, and the T/C [2] was 97 % of control and the T/C [4] was 90 % of control.
